Values of other authors, collected in publication PMC2765482 (Journal of medicinal chemistry, 2009).
Marks after values point to notes of the source that are not given here.

What was measured:
[1] = system: vancomycin-sensitive bacteria and vancomycin-resistant Enterococci (VRE); details: against vancomycin-sensitive bacteria and VRE; ref [9]
[2] = versus vancomycin; ref [11]
[3] = system: Staphylococcus aureus strain ATCC 25923 (vancomycin-sensitive); details: vancomycin-sensitive strain ATCC 25923; ref [18b] (text: ref [4],[18])
[4] = system: Enterococcus faecalis strain BM4166 (vancomycin-resistant, VanA); details: ref [18b]
[5] = system: N,N′-Ac2-L-Lys-D-Ala-D-Ala (2); details: ligand N,N′-Ac2-L-Lys-D-Ala-D-Ala; ref [4]
[6] = system: N,N′-Ac2-L-Lys-D-Ala-D-Lac (3); details: for Association Constants 3 (Ka): ligand N,N′-Ac2-L-Lys-D-Ala-D-Lac, ref [4]
[7] = system: Enterocococci bacterial strains, VanA and VanB; details: VanA and VanB resistant versus sensitive; ref [1d,k]

Chlorobiphenyl vancomycin
more active than vancomycin [1]: ca. 100 fold

N-demethylvancomycin
enhancement of antimicrobial properties [2]: 2 fold

Vancomycin [Compound 1]
MIC S. aureus [3]: 1.25 ^e µg/mL
MIC E. faecalis [4]: 2000 ^e µg/mL
Association Constants 2 (Ka) [5]: 2.0 ^f ×10^5 M^−1
reduction of affinity for the ligand on D-Ala to D-Lac modification (NH→O) ([6]; D-Ala-D-Lac versus D-Ala-D-Ala ligand, ref [1d,k]): 1000 fold
Association Constants 3 (Ka) [6]: 1.8 ^f ×10^2 M^−1
drop in antimicrobial activity [7]: 1000 fold

vancomycin aglycon [Compound 5]
MIC S. aureus [3]: 0.625 ^e µg/mL
MIC E. faecalis [4]: 640 ^e µg/mL
Association Constants 2 (Ka) [5]: 1.7 ^f ×10^5 M^−1
Association Constants 3 (Ka) [6]: 1.2 ^f ×10^2 M^−1
